Experimental data taken from patent US20230391788A1 (NAVIN SAXENA RESEARCH & TECHNOLOGY PVT. LTD., priority 2020, published 2023).

Key:
[1] = after oral dosing; cited from earlier work
[2] = Storage stability of naltrexone decanoate; format: physicochemical; conditions: storage condition of less than 25° C.

Row | Structure (SMILES) | time at which peak plasma levels occur [1] | period over which stable [2]
1 | Oc1ccc2c3c1O[C@H]1[C@H](O)CC[C@@]4(O)[C@@H](C2)N(CC2CC2)CC[C@]314 [6-β-naltrexol] | one | –
2 | CCCCCCCCCC(=O)Oc1ccc2c3c1O[C@H]1C(=O)CC[C@@]4(O)[C@@H](C2)N(CC2CC2)CC[C@]314 [naltrexone decanoate, 17-(cyclopropylmethyl)-4,5-epoxy-14-hydroxy-3-[(1-oxodecyl)oxy]-(5α)-morphinan-6-one] | – | ≤ 60 months
3 | O=C1CC[C@@]2(O)[C@H]3Cc4ccc(O)c5c4[C@@]2(CCN3CC2CC2)[C@H]1O5 [naltrexone, Naltrexone, reference compound] | one | –
